Laboratory results taken from article PMC8063965 (Journal of medicinal chemistry, 2021).
One block for each compound: values may come before it.

Assays:
[1] = system: Ac-α-tubulin in HeLa cells; experiment: Immunofluorescence assay, Ac-α-tubulin; format: cell-based; conditions: 6 h
full-length hHDAC6 = target: T1, full-length hHDAC6 (Homo sapiens, UniProt Q9UBN7); experiment: EMSA activity-based inhibition assay, HDAC6; format: biochemical; conditions: for fold improvement of potency on moving the fluorine substituent: ortho- and meta-fluoro versus parent analog, selectivity was lost
T1 sequence (Q9UBN7 1-1215): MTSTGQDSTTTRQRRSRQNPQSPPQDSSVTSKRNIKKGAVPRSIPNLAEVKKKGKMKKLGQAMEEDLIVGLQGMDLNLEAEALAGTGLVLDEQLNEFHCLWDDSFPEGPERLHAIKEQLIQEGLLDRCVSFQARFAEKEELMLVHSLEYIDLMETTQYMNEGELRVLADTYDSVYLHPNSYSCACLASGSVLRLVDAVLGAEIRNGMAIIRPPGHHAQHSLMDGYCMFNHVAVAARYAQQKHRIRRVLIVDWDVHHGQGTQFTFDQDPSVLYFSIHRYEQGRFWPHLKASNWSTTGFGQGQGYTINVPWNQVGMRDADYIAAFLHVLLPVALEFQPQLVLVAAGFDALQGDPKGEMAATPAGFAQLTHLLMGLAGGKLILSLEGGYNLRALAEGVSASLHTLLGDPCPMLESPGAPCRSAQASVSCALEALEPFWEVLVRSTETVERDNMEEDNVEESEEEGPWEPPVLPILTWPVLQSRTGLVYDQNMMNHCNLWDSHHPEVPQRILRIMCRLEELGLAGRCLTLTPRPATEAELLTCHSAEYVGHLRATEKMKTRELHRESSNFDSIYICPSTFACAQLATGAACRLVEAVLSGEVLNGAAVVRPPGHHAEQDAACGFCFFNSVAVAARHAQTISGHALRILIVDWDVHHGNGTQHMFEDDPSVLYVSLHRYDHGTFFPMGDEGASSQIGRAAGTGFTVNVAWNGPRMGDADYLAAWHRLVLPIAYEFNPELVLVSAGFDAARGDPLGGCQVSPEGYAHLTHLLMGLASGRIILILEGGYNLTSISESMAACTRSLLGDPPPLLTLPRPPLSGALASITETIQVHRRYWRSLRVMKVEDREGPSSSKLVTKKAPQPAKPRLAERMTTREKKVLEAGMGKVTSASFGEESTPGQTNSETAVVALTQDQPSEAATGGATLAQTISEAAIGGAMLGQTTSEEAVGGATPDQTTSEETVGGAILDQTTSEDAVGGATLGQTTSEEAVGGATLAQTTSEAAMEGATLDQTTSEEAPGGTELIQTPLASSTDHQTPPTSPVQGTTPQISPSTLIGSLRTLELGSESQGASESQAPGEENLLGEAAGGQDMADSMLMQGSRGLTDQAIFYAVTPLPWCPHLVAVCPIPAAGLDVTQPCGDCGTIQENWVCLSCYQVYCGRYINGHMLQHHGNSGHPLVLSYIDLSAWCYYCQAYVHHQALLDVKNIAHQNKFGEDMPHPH

[2] = Mouse plasma stability assay; format: in vitro ADME; conditions: triplicate
[3] = system: Ac-α-tubulin in MV4–11 cells; experiment: Western blot of Ac-α-tubulin; format: cell-based
[4] = system: 'normal' MRC9 lung fibroblasts; experiment: Cytotoxicity assay; format: cell-based; conditions: 72 h
Ac-histone in HeLa cells = experiment: Immunofluorescence assay, Ac-histone; format: cell-based; conditions: 0.1 μM or 2 μM, 6 h
[5] = Pooled human whole blood stability assay; format: in vitro ADME; conditions: triplicate
[6] = system: six leukemic cancer cells; experiment: Cytotoxicity assay; format: cell-based; conditions: 72 h, read-out: average anti-proliferative IC50
MV4–11 cells [7] = experiment: FACS apoptosis detection assay; format: cell-based
MV4–11 cells [8] = experiment: Detection of ROS generation; format: cell-based; conditions: MV4–11, 10 μM, up to 4 h, versus DMSO control
drHDAC6 CD2 = target: T2, drHDAC6 CD2 (Danio rerio, UniProt F8W4B7); experiment: Fluorescence polarization; format: binding, Danio rerio (zebrafish); conditions: orthogonal fluorescence polarization assay
T2 sequence (F8W4B7 440-798 limits assumed): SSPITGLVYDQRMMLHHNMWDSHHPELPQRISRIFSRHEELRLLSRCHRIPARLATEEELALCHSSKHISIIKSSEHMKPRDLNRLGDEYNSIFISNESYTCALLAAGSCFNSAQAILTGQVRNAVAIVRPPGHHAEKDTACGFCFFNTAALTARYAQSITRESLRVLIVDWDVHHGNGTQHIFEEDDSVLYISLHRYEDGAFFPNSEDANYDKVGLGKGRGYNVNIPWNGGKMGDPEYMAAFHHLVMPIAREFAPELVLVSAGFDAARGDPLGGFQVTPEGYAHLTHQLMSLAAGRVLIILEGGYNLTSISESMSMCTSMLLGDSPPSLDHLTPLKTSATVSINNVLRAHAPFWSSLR

[9] = system: Ac-histone H3 in MV4–11 cells; experiment: Western blot of Ac-histones; format: cell-based
HDAC6 = target: T3, HDAC6 (Homo sapiens, UniProt Q9UBN7); experiment: Intact mass spectrometry analysis of the enzyme; conditions: intact mass spectrometry on treatment with compound
T3 sequence (Q9UBN7 1-1215): T1 sequence (Q9UBN7 1-1215)

Structure (SMILES): O=C(CCCCCCNC(=O)c1cnc(N(c2ccccc2)c2ccccc2Cl)nc1)NO [Citarinostat, reference compound]
- accumulation of Ac-α-tubulin (red stain) at 2 μM [1]: slightly less prominent

- HDAC6 selectivity (full-length hHDAC6; against 4 representative HDAC homologs (Table 1)): > 71 fold
Structure (SMILES): O=C(NO)c1ccc(CN(Cc2ccncc2)S(=O)(=O)c2c(F)c(F)c(F)c(F)c2F)cc1 [Compound 8]

- fold improvement of potency on moving the fluorine substituent (full-length hHDAC6): 2 fold
Structure (SMILES): O=C(NO)c1ccc(CN(Cc2cccc(F)c2)S(=O)(=O)c2cc(F)c(F)c(F)c2F)cc1 [Compound 12]

- fold improvement of potency on moving the fluorine substituent (full-length hHDAC6): 2 fold
Structure (SMILES): O=C(NO)c1ccc(CN(Cc2ccccc2F)S(=O)(=O)c2cc(F)c(F)c(F)c2F)cc1 [Compound 13]

- fold more potent against HDAC6 compared to 9 (full-length hHDAC6; relative to 9): 2 fold
Structure (SMILES): O=C(NO)c1ccc(CN(Cc2ccccn2)S(=O)(=O)c2cc(F)c(F)c(F)c2F)cc1 [Compound 14]

Structure (SMILES): O=C(NO)c1ccc(CN(Cc2cccnc2)S(=O)(=O)c2cc(F)c(F)c(F)c2F)cc1 [TO-317]
- Remaining percentage concentration, 0 min [2]: 100%
- Ac-α-tubulin levels at 0.25 μM ([3]; MV4–11 cells, 0.25 μM, 6 hours): significant increase
- lowest concentration giving preferential increase in acetylated α-tubulin ([3]; dose-dependent, cells not given): 50 nM
- activity in normal cells [4]: minimal activity
- levels of Ac-histone (green stain) (Ac-histone in HeLa cells): do not change significantly
- Remaining percentage concentration, 0 min [5]: 100%
- IC50 [6]: < 2000 nM
- accumulation of Ac-α-tubulin (red stain) at 2 μM [1]: significant accumulation
- early and late apoptotic cell populations, combined (MV4–11 cells [7]; MV4–11, 0.25 μM): 11%
- early and late apoptotic cell populations, combined (MV4–11 cells [7]; MV4–11, 2 μM): 65%
- early and late apoptotic cell populations, combined (MV4–11 cells [7]; MV4–11, 4 μM): 73%
- necrosis (UL sub-population) (MV4–11 cells [7]; MV4–11, across the range of concentrations tested, versus DMSO control): does not show statistically different changes to necrosis
- ROS generation (MV4–11 cells [8]): markedly increased levels of ROS after 2 h incubation
- potency of interaction with drHDAC6 CD2 (FP) (drHDAC6 CD2): 4 nM
- Ac-histones accumulation ([9]; MV4–11 cells, at 0.25 μM, 6 hours): minimal accumulation
- concentration required to observe distinct acetylation of H3 histone ([9]; cells not given): ~ 0.75 μM
- covalent modification of the enzyme (HDAC6): no covalent modification of the enzyme was observed
